Source: patent US20120115896A1, “ISOGENIC HUMAN CELL LINES COMPRISING MUTATED CANCER ALLELES AND PROCESS USING THE CELL LINES” (priority 2008, published 2012)
Like-named read-outs stand apart in the source and are kept apart here.

Key:
[1] = system: hTERT-HME1 cells carrying EGFR (delE746-A750) KI
[2] = system: hTERT-HME1 cells carrying KRAS (G13D) KI
[3] = system: hTERT-HME1 cells carrying BRAF (V600E) KI
[4] = system: hTERT-HME1 cells carrying PIK3CA (E545K and H1047R) KI
[5] = system: hTERT-HME1 DKI cells carrying PIK3CA (H1047R) and EGFR (delE746-A750)
[6] = system: DLD-1 colorectal cancer cells and derivative clones (DKO-1, DKO-3, DKO-4, PIK3CA WT/mutant); test: Viability (ATP assay) of DLD-1 cells and isogenic KRAS / PIK3CA derivative clones; conditions: DLD-1, FIG. 8B
Description: (§1) Results are expressed as percent of viability compared to cells treated with DMSO only ('control') and represent mean±SD of at least three independent observations.
(§2) After serial dilutions, 100 μl of drugs in serum free medium were added to cells with a multichannel pipette. Vehicle and medium-only containing wells were added as controls. Plates were incubated at 37° C. in 5% CO2 for 96 h, after which cell viability was assessed by ATP content using the CellTiter-Glo® Luminescent Assay (Promega Madison, Wis.).

[7] = system: HCT 116 colorectal cancer cells and derivative clones (HKh-2, HKe-3, HK2-6, PIK3CA WT/mutant); test: Viability (ATP assay) of HCT 116 cells and isogenic KRAS / PIK3CA derivative clones; conditions: HCT 116, FIG. 8A
Description: as §1, §2

CCN(CC)CCNC(=O)c1cc(Cl)c(N)cc1OC [Metoclopramide]
ΔKI EGFR ([1]; Log(M) −3.10): 0 | ΔKI EGFR ([1]; Log(M) −3.35): 9.94 | ΔKI EGFR ([1]; Log(M) −3.57): 0 | ΔKI EGFR ([1]; Log(M) −3.70): 0 | ΔKI EGFR ([1]; Log(M) −3.82): 0 | ΔKI EGFR ([1]; Log(M) −4.05): 0 | ΔKI EGFR ([1]; Log(M) −4.30): 0 | ΔKI EGFR ([1]; Log(M) −4.52): 0 | ΔKI KRAS ([2]; Log(M) −3.10): 0 | ΔKI KRAS ([2]; Log(M) −3.35): 0 | ΔKI KRAS ([2]; Log(M) −3.57): 0 | ΔKI KRAS ([2]; Log(M) −3.70): 0 | ΔKI KRAS ([2]; Log(M) −3.82): 0 | ΔKI KRAS ([2]; Log(M) −4.05): 0 | ΔKI KRAS ([2]; Log(M) −4.30): 0 | ΔKI KRAS ([2]; Log(M) −4.52): 0 | ΔKI BRAF ([3]; Log(M) −3.10): −4.48 | ΔKI BRAF ([3]; Log(M) −3.35): 0 | ΔKI BRAF ([3]; Log(M) −3.57): 0 | ΔKI BRAF ([3]; Log(M) −3.70): −0.66 | ΔKI BRAF ([3]; Log(M) −3.82): 0 | ΔKI BRAF ([3]; Log(M) −4.05): 0 | ΔKI BRAF ([3]; Log(M) −4.30): 0 | ΔKI BRAF ([3]; Log(M) −4.52): 0 | ΔKI PIK3CA ([4]; Log(M) −3.10): 0 | ΔKI PIK3CA ([4]; Log(M) −3.35): 0 | ΔKI PIK3CA ([4]; Log(M) −3.57): 0 | ΔKI PIK3CA ([4]; Log(M) −3.70): 0 | ΔKI PIK3CA ([4]; Log(M) −3.82): 0 | ΔKI PIK3CA ([4]; Log(M) −4.05): 0 | ΔKI PIK3CA ([4]; Log(M) −4.30): 0 | ΔKI PIK3CA ([4]; Log(M) −4.52): 0 | ΔKI PIK3CA + EGFR ([5]; Log(M) −3.10): 2.8 | ΔKI PIK3CA + EGFR ([5]; Log(M) −3.35): 0 | ΔKI PIK3CA + EGFR ([5]; Log(M) −3.57): 0 | ΔKI PIK3CA + EGFR ([5]; Log(M) −3.70): 0.2 | ΔKI PIK3CA + EGFR ([5]; Log(M) −3.82): 0 | ΔKI PIK3CA + EGFR ([5]; Log(M) −4.05): 0 | ΔKI PIK3CA + EGFR ([5]; Log(M) −4.30): 0 | ΔKI PIK3CA + EGFR ([5]; Log(M) −4.52): 0

O=C(NOCC1CC1)c1ccc(F)c(F)c1Nc1ccc(I)cc1Cl [CI-1040, CI-1040 (PD 184352)]
effect on PIK3CA WT/− cells versus isogenic PIK3CA mutant cells [6]: affects to a greater extent | effect on PIK3CA mutant cells in combination with everolimus ([6]; with everolimus 10^−7 M): effects comparable to those achievable by the MEK inhibitor alone | effect on PIK3CA WT/− cells versus isogenic PIK3CA mutant cells [7]: affects to a greater extent | effect on PIK3CA mutant cells in combination with everolimus ([7]; with everolimus 10^−7 M): effects comparable to those achievable by the MEK inhibitor alone

CC(C)=CCc1c(O)cc(O)c2c1O[C@H](c1ccc(O)cc1)CC2=O [8-Prenylnaringenin]
ΔKI EGFR ([1]; Log(M) −3.20): 0 | ΔKI EGFR ([1]; Log(M) −3.68): 1.16 | ΔKI KRAS ([2]; Log(M) −3.20): 0.02 | ΔKI KRAS ([2]; Log(M) −3.68): 0 | ΔKI BRAF ([3]; Log(M) −3.20): 0.02 | ΔKI BRAF ([3]; Log(M) −3.68): 0.88 | ΔKI PIK3CA ([4]; Log(M) −3.20): 0.02 | ΔKI PIK3CA ([4]; Log(M) −3.68): 0 | ΔKI PIK3CA + EGFR ([5]; Log(M) −3.20): 0.02 | ΔKI PIK3CA + EGFR ([5]; Log(M) −3.68): 1.52

COc1cc(O)c2c(c1)O[C@H](c1ccc(O)cc1)CC2=O [Sakuranetin]
ΔKI EGFR ([1]; Log(M) −3.05): 0.02 | ΔKI EGFR ([1]; Log(M) −3.52): 0.78 | ΔKI KRAS ([2]; Log(M) −3.05): 0 | ΔKI KRAS ([2]; Log(M) −3.52): 0 | ΔKI BRAF ([3]; Log(M) −3.05): 0.02 | ΔKI BRAF ([3]; Log(M) −3.52): 2.24 | ΔKI PIK3CA ([4]; Log(M) −3.05): 0 | ΔKI PIK3CA ([4]; Log(M) −3.52): 2.4 | ΔKI PIK3CA + EGFR ([5]; Log(M) −3.05): 0.04 | ΔKI PIK3CA + EGFR ([5]; Log(M) −3.52): 1.46

O=c1cc(-c2ccc(O)cc2)oc2cc(O)cc(O)c12 [Apigenin]
ΔKI EGFR ([1]; Log(M) −4.40): 0 | ΔKI EGFR ([1]; Log(M) −4.70): 0 | ΔKI EGFR ([1]; Log(M) −5.00): 0 | ΔKI KRAS ([2]; Log(M) −4.40): 0 | ΔKI KRAS ([2]; Log(M) −4.70): 0 | ΔKI KRAS ([2]; Log(M) −5.00): 0 | ΔKI BRAF ([3]; Log(M) −4.40): −3.18 | ΔKI BRAF ([3]; Log(M) −4.70): −2.32 | ΔKI BRAF ([3]; Log(M) −5.00): 0 | ΔKI PIK3CA ([4]; Log(M) −4.40): 0 | ΔKI PIK3CA ([4]; Log(M) −4.70): 0 | ΔKI PIK3CA ([4]; Log(M) −5.00): 0 | ΔKI PIK3CA + EGFR ([5]; Log(M) −4.40): 0 | ΔKI PIK3CA + EGFR ([5]; Log(M) −4.70): 0 | ΔKI PIK3CA + EGFR ([5]; Log(M) −5.00): 0
